The assay deals with 485368-065-R4-J2-PDC spheroids with HUVEC/MSC, viability. Description: Anticancer human tumor 485368-065-R4-J2-PDC patient-derived pancreatic carcinoma cell line growth inhibition [TAK]. The settings on record: for viability, T/C: stronger effect = lower value. From the text:
Combinatorial screen of targeted agents with TAK-243 and ipatasertib in multi-cell type tumor spheroids
A high-throughput screen of multi-cell type tumor spheroids was designed to identify active combinations of targeted small molecules and TAK-243 or ipatasertib. Complex spheroids include a stromal component modeled by human endothelial cells (HUVEC) and fibroblasts modeled by human mesenchymal stem cells (MSCs). The concentration ranges selected for each drug and investigational agent were based upon clinically achievable concentrations if the clinical Cmax of the agent was known.
Compounds. The drugs and investigational agents: TAK-243 (785004), ipatasertib (767898), everolimus (733504), selumetinib (741078), bortezomib (756655), trametinib (758246), ixazomib (758254), vemurafenib (761431), dabrafenib (764134), sapanisertib (764658), alpelisib (765974), and copanlisib (816437), were obtained from the National Cancer Institute (NCI) Developmental Therapeutics Program Chemical Repository. The FDA-approved anticancer drug set is available from the NCI Developmental Therapeutics Program. […] The stock solutions were prepared in dimethyl sulfoxide (DMSO, Sigma-Aldrich, St. Louis, MO, cat. D2650) at 800-fold the tested concentration and stored at -70 degrees C prior to their use. All drugs and investigational agents were tested over a range starting from a high concentration at or near the clinical Cmax and decreasing in half-log increments. If the clinical Cmax for an agent had not been determined, the highest concentration tested was 10 microM.
NCI60 Cell Culture. NCI60 cell lines were obtained from the NCI Developmental Therapeutics Program Tumor Repository. For each lot of cells, the Repository performed Applied Biosystems AmpFLSTR Identifiler testing with PCR amplification to confirm consistency with the published Identifier STR profile for each cell line. Cells were kept in continuous culture for no more than 20 passages. The optimal seeding densities for each of the cell lines at each time point assessed were determined prior to performing the concentration response studies. Briefly, the NCI60 human tumor lines were grown as monolayers in RPMI 1640 medium supplemented with 10% FBS and 2 mmol/L L-glutamine.
An additional 2 lines were from the NCI60 cell line panel including melanomas, MALME-3M and SK-MEL-2. Pooled donor human umbilical vein endothelial cells (HUVEC, Lonza, cat. CC-2519) and human mesenchymal stem cells (hMSC, Lonza, cat. PT-2501) were purchased from Lonza (Walkersville, MD).
PDMR cell lines were grown in complete medium (DC medium): Dulbecco's modified Eagle's medium (DMEM)/F12 supplemented with 5% fetal bovine serum (FBS), 2 mM L-glutamine, 100 U/mL penicillin and 100 µg/ml streptomycin, 0.4 µg/ml hydrocortisone, 10 ng/ml epidermal growth factor (EGF) recombinant human protein, 24 µg/mL adenine, and 0.1 mg/mL primocin. During culture from frozen stock vials, PDMR cells were cultured in the same medium containing 10 µM Y-27632 (see Table 3). The PDCs were cultured in complete DMEM/F12 media without 10 microM Y-27632 dihydrochloride for at least two passages prior to the screen. The pooled donor HUVEC and hMSC were cultured in endothelial cell growth medium 2 (PromoCell, Heidelberg, Germany, cat. C-22011) and mesenchymal stem cell growth medium 2 (PromoCell, cat. C-28009), respectively. For all experiments, HUVEC and hMSC were used at passages </=5.
For the pre-screen, cell seeding densities were determined from a titration spanning the range from 5,000 to 313 cells per well. The mct-spheroids including 60% malignant cells, 25% HUVEC and 15% MSC dispensed as a mixture into U-bottom Ultra-Low Attachment 384-well plates (Corning, NY)
High-throughput Drug Combination Screening.
Prior to their inoculation into 384-well plates, malignant cells, HUVEC, and hMSC were removed from T flasks using TrypLE express (Thermo Fisher Scientific, cat. 12605036) and harvested by centrifugation for 5 min at 233 x g. […]

Where [1] appears, read: curve of first compound, second compound 0.3 µM.
Setting [2] is: curve of first compound, second compound 0.949 µM.
Where [3] appears, read: curve of first compound, second compound 3 µM.
The mark [4] stands for this setting: curve of first compound, second compound 9.49 µM.
Where [5] appears, read: curve of first compound, second compound 30 µM.
Where [6] appears, read: second compound 0.3 µM, first compound 0.000316 µM.
[7] abbreviates: second compound 0.3 µM, first compound 0.001 µM.
Setting [8] is: second compound 0.3 µM, first compound 0.00316 µM.
The mark [9] stands for this setting: second compound 0.3 µM, first compound 0.01 µM.
The mark [10] stands for this setting: second compound 0.949 µM, first compound 0.000316 µM.
[11] abbreviates: second compound 0.949 µM, first compound 0.001 µM.
The mark [12] stands for this setting: second compound 0.949 µM, first compound 0.00316 µM.
[13] abbreviates: second compound 0.949 µM, first compound 0.01 µM.
The mark [14] stands for this setting: second compound 3 µM, first compound 0.000316 µM.
Setting [15] is: second compound 3 µM, first compound 0.001 µM.
Setting [16] is: second compound 3 µM, first compound 0.00316 µM.
Where [17] appears, read: second compound 3 µM, first compound 0.01 µM.
Where [18] appears, read: second compound 9.49 µM, first compound 0.000316 µM.
[19] abbreviates: second compound 9.49 µM, first compound 0.001 µM.
Where [20] appears, read: second compound 9.49 µM, first compound 0.00316 µM.
The mark [21] stands for this setting: second compound 9.49 µM, first compound 0.01 µM.
Setting [22] is: second compound 30 µM, first compound 0.000316 µM.
The mark [23] stands for this setting: second compound 30 µM, first compound 0.001 µM.
The mark [24] stands for this setting: second compound 30 µM, first compound 0.00316 µM.
Setting [25] is: second compound 30 µM, first compound 0.01 µM.

The source of these data is PubChem BioAssay AID2060355 (Molecular Pharmacology Branch, DTP, NCI, 2025).

Usually viability, T/C stands for the ratio of treated to control. A word on the IC50: it is the concentration that gives 50% inhibition.

Where “and” joins values, the source holds several entries; their conditions need not be identical. Equal values may be shown once. Some results are limits rather than exact numbers.
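Further: spheroids exposed to compounds for seven days before readout.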

Turning to `CC(C)CC(NC(=O)CNC(=O)c1cc(Cl)ccc1Cl)B1OC(=O)CC(CC(=O)O)(C(=O)O)O1` (configuration not stated), the viability, T/C was 94.9% and 95.6% (compound 0.000316 µM); 102% and 98.5% (compound 0.001 µM); 94.6% and 94.7% (compound 0.00316 µM); 108% and 110% (compound 0.01 µM); 61.6% and 60.1% (compound 0.0316 µM); 9.41% and 9.34% (compound 0.1 µM). Moreover, the IC50 (curve of compound) was 40.8 nM and 39.7 nM.

Take `CC(C)CC(NC(=O)C(Cc1ccccc1)NC(=O)c1cnccn1)B(O)O` (configuration not stated) + CC(C)NCC(C(=O)N1CCN(c2ncnc3c2C(C)CC3O)CC1)c1ccc(Cl)cc1: the IC50 runs as follows: under setting [1], 5.9 nM; under setting [2], 5.92 nM; under setting [3], 5.94 nM; under setting [4], 5.13 nM; under setting [5], 4.63 nM. In addition, the viability, T/C by setting is: (second compound 0.3 µM, first compound 31.6 pM) 98.2%; (second compound 0.3 µM, first compound 0.0001 µM) 96.9%; under setting [6], 90.6%; under setting [7], 92.2%; under setting [8], 108%; under setting [9], 10%. The viability, T/C is 94.5% (second compound 0.949 µM, first compound 31.6 pM); 94.3% (second compound 0.949 µM, first compound 0.0001 µM); 103% under setting [10]; 98.4% under setting [11]; 102% under setting [12]; 9.62% under setting [13]. Also, the viability, T/C (second compound 3 µM, first compound 31.6 pM) was 94.3%; the viability, T/C (second compound 3 µM, first compound 0.0001 µM) was 101%; the viability, T/C under setting [14] is 98.5%; the viability, T/C under setting [15] was 92.2%; the viability, T/C under setting [16] is 94.9%; the viability, T/C under setting [17] was 12.9%. In addition, the viability, T/C (second compound 9.49 µM, first compound 31.6 pM) was 97%; the viability, T/C (second compound 9.49 µM, first compound 0.0001 µM) is 94.2%; the viability, T/C under setting [18] was 91.1%; the viability, T/C under setting [19] is 95.2%; the viability, T/C under setting [20] is 79.7%; the viability, T/C under setting [21] is 8.65%. Also, the viability, T/C runs as follows: (second compound 30 µM, first compound 31.6 pM) 78.5%; (second compound 30 µM, first compound 0.0001 µM) 81.9%; under setting [22], 77.6%; under setting [23], 78%; under setting [24], 71.2%; under setting [25], 6.97%.

For `CC(C)CC(NC(=O)C(Cc1ccccc1)NC(=O)c1cnccn1)B(O)O` (configuration not stated), the viability, T/C by setting is: (compound 31.6 pM) 108% and 103%; (compound 0.0001 µM) 101%; (compound 0.000316 µM) 96.3% and 89.7%; (compound 0.001 µM) 99% and 102%; (compound 0.00316 µM) 107% and 114%; (compound 0.01 µM) 9.55% and 6.03%. The IC50 (curve of compound) was 6.05 nM and 5.9 nM.

For `CC(C)CC(NC(=O)CNC(=O)c1cc(Cl)ccc1Cl)B1OC(=O)CC(CC(=O)O)(C(=O)O)O1` (configuration not stated) + CC(C)NCC(C(=O)N1CCN(c2ncnc3c2C(C)CC3O)CC1)c1ccc(Cl)cc1, the IC50 runs as follows: under setting [1], 37.7 nM; under setting [2], 31.3 nM; under setting [3], 25.6 nM; under setting [4], 24.8 nM; under setting [5], 19.7 nM. Also, the viability, T/C is 89.7% under setting [6]; 93.9% under setting [7]; 98.7% under setting [8]; 106% under setting [9]; 56.7% (second compound 0.3 µM, first compound 0.0316 µM); 12.8% (second compound 0.3 µM, first compound 0.1 µM). The viability, T/C runs as follows: under setting [10], 98.4%; under setting [11], 99%; under setting [12], 97.5%; under setting [13], 106%; (second compound 0.949 µM, first compound 0.0316 µM) 49.6%; (second compound 0.949 µM, first compound 0.1 µM) 12.5%. Also, the viability, T/C by setting is: under setting [14], 103%; under setting [15], 99.6%; under setting [16], 99.2%; under setting [17], 92.6%; (second compound 3 µM, first compound 0.0316 µM) 40.5%; (second compound 3 µM, first compound 0.1 µM) 9.51%. Also, the viability, T/C is 94.7% under setting [18]; 87.3% under setting [19]; 89.5% under setting [20]; 92.6% under setting [21]; 39% (second compound 9.49 µM, first compound 0.0316 µM); 9.49% (second compound 9.49 µM, first compound 0.1 µM). The viability, T/C was 76.9% under setting [22]; 80.2% under setting [23]; 81% under setting [24]; 76.7% under setting [25]; 31.3% (second compound 30 µM, first compound 0.0316 µM); 7.82% (second compound 30 µM, first compound 0.1 µM).

With `CC(C)NCC(C(=O)N1CCN(c2ncnc3c2C(C)CC3O)CC1)c1ccc(Cl)cc1` (configuration not stated), the viability, T/C is 95.9% [middle of 10 runs] (compound 0.3 µM); 94.7% [middle of 10 runs] (compound 0.949 µM); 99.1% [middle of 10 runs] (compound 3 µM); 91.6% [middle of 10 runs] (compound 9.49 µM); 78% [middle of 10 runs] (compound 30 µM). The IC50 (compound alone, run of 02/20/2020) is greater than 30000 nM.

Consider `COC1CC2CCC(C)C(O)(O2)C(=O)C(=O)N2CCCCC2C(=O)OC(C(C)CC2CCC(OCCO)C(OC)C2)CC(=O)C(C)C=C(C)C(O)C(OC)C(=O)C(C)CC(C)C=CC=CC=C1C` (configuration not stated), for which the viability, T/C by setting is: (compound 0.000316 µM) 89.3% and 76.4%; (compound 0.001 µM) 95.4% and 82.8%; (compound 0.00316 µM) 91.1% and 89.1%; (compound 0.01 µM) 92.2% and 96.3%; (compound 0.0316 µM) 92.8% and 90.3%; (compound 0.1 µM) 88.8% and 86.1%. The IC50 (curve of compound) was greater than 100 nM.
